Laboratory results from PubChem BioAssay (NCI).
“And” between values parts separate entries of the source, which are not always exact repeats. Identical values can stand only once.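 Briefly, cells in 96-well plates were exposed to five compound concentrations for 48 h, and endpoints were estimated by linear interpolation. The concentration for 50% growth inhibition is given as GI50. The concentration for full growth arrest is given as TGI.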

Legend:
Test in all cases: NCI tumour cell line growth inhibition, 48 h
A549 NSCLC = test system: A549 NSCLC
EKVX NSCLC = test system: EKVX NSCLC
HOP-62 NSCLC = test system: HOP-62 NSCLC
SNB-75 CNS = test system: SNB-75 CNS
UO-31 renal = test system: UO-31 renal
TK-10 renal = test system: TK-10 renal
BT-549 breast = test system: BT-549 breast
MCF7 breast = test system: MCF7 breast
PC-3 prostate = test system: PC-3 prostate
T-47D breast = test system: T-47D breast

| Compound | TGI (A549 NSCLC) | TGI (EKVX NSCLC) [µM] | TGI (HOP-62 NSCLC) [µM] | TGI (SNB-75 CNS) | TGI (UO-31 renal) | TGI (TK-10 renal) | GI50 (A549 NSCLC) [µM] | GI50 (EKVX NSCLC) [µM] | GI50 (HOP-62 NSCLC) [µM] | GI50 (SNB-75 CNS) [µM] | GI50 (TK-10 renal) [µM] | GI50 (UO-31 renal) [µM] | GI50 (BT-549 breast) [µM] | TGI (BT-549 breast) [µM] | GI50 (MCF7 breast) [µM] | TGI (MCF7 breast) [µM] | GI50 (PC-3 prostate) [µM] | TGI (PC-3 prostate) [µM] | TGI (T-47D breast) [µM] |
| --- | --- | --- | --- | --- | --- | --- | --- | --- | --- | --- | --- | --- | --- | --- | --- | --- | --- | --- | --- |
| C=C1C[C@]23CCC4C(C)(C)C(=O)CC[C@]4(C)C2C[C@H]1C(O)C3=O (stereo partly drawn) | > 75 µM | > 75 | > 75 | > 75 µM | > 75 µM |  |  |  |  |  |  |  |  |  |  |  |  |  |  |
| O=C1CC2C(=O)N(Cc3ccccc3)C1C=C2S(=O)(=O)c1ccccc1 (stereo not drawn) | > 100 µM | > 100 | > 100 | > 100 µM | > 100 µM | > 100 µM |  |  |  |  |  |  |  |  |  |  |  |  |  |
| CC(C)CCCC(C)[C@H]1CCC2[C@H]3C(CC[C@@]21C)[C@@]1(C)CCC=C[C@]12C[C@@H]2[C@@H]3O (stereo partly drawn) | > 100 µM | > 100 | > 100 | > 100 µM | > 100 µM | > 100 µM |  |  |  |  |  |  |  |  |  |  |  |  |  |
| COC(=O)CCC(=O)CC1CC(=O)C2CCCN12 (stereo not drawn) | > 100 µM | > 100 | > 100 | > 100 µM | > 100 µM | > 100 µM |  |  |  |  |  |  |  |  |  |  |  |  |  |
| Cc1ccc(C2(O)CC(c3ccc([N+](=O)[O-])o3)=NN2C(=O)COc2ccc(Cl)cc2)cc1 (stereo not drawn) | 56.4 µM | 18.8 | 18.2 | > 48.3 µM | 16.2 µM | 38.4 µM |  |  |  |  |  |  |  |  |  |  |  |  |  |
| COC(=O)/C(C=O)=C/Sc1ccccc1 | > 100 µM | > 100 | > 100 | 50.9 µM | 30.7 µM | > 100 µM |  |  |  |  |  |  |  |  |  |  |  |  |  |
| CN(C)C(=S)/N=c1\ss/c(=N\C(=S)N(C)C)n1-c1ccc(Cl)c(Cl)c1 | > 100 µM | > 100 | > 100 | 61.2 µM | > 100 µM | > 100 µM |  |  |  |  |  |  |  |  |  |  |  |  |  |
| COC(=O)/C(C#N)=C1\CCC(O)N1 (stereo not drawn) | > 100 µM | > 100 | > 100 | > 100 µM | > 100 µM | > 100 µM |  |  |  |  |  |  |  |  |  |  |  |  |  |
| N.N.N.N.[Cl-].[Co+3].[N-]=[N+]=[N-].[N-]=[N+]=[N-] | > 100 µM | > 100 | > 100 | > 100 µM | > 100 µM | > 100 µM | > 100 | > 100 | > 100 | > 100 | > 100 | 41.3 |  |  |  |  |  |  |  |
| COc1cc2ccc3c4cc(OC)c(OC(C)C)cc4cnc3c2cc1OC | > 100 µM | > 100 | > 100 | > 100 µM | > 100 µM | > 100 µM |  |  |  |  |  |  |  |  |  |  |  |  |  |
| COc1ccc(-c2c[nH]c(=S)n2-c2ccc(OC)cc2)cc1 | > 50 µM | > 50 | > 50 | > 50 µM | > 50 µM | > 50 µM | > 50 | > 50 | > 50 | > 50 | > 50 | > 50 | > 50 | > 50 | > 50 | > 50 | > 50 | > 50 |  |
| CC1=NN(C(=O)CC(=O)N(C(=O)c2ccccc2Cl)c2ccc(C)cc2)C(=O)C1N=Nc1ccc([N+](=O)[O-])cc1 (stereo not drawn) | > 67.7 µM | > 100 | > 100 | > 72 µM | > 93.6 µM | > 100 µM |  |  |  |  |  |  |  |  |  |  |  |  |  |
| COc1cc2cccc(N=Cc3cccc(OC)c3OC(C)C)c2cc1OC | 86.5 µM | > 100 | 80.3 | 49 µM | > 100 µM | 59 µM |  |  |  |  |  |  |  |  |  |  |  |  |  |
| C[C@@]12CCCc3coc(c31)C(=O)c1cc3c(cc12)C(=O)C=CC3=O | > 1 µM and 51.4 µM | 34.1 | > 100 | > 1 µM and 38.2 µM | > 1 µM and 29.7 µM | > 1 µM and 35.8 µM | > 1 |  | > 100 | > 1 | > 1 | > 1 |  |  |  |  |  |  |  |
| O=C1[C@H]2ON(c3ccccc3)C(c3ccc(Cl)cc3)[C@H]2C(=O)N1c1ccc(Cc2ccc(N3C(=O)[C@@H]4ON(c5ccccc5)C(c5ccc(Cl)cc5)[C@@H]4C3=O)cc2)cc1 (stereo partly drawn) | > 100 µM | > 100 | > 100 | > 100 µM | > 100 µM | > 100 µM |  |  |  |  |  |  |  |  |  |  |  |  |  |
| CCOC(=O)c1c[nH]c2oc(/C=N/N3CC(CN4CCOCC4)OC3=O)cc2c1=O (stereo not drawn) | > 100 µM | > 100 | > 100 | > 100 µM | > 100 µM | > 100 µM |  |  |  |  |  |  |  |  |  | > 100 |  | > 100 | > 100 |
| C=CCNC(=O)N(CCC)CCCCC(NC(C)=O)C(=O)NCc1ccccc1 (stereo not drawn) | > 100 µM | > 100 | > 100 | > 100 µM | > 100 µM | > 100 µM |  |  |  |  |  |  |  |  |  |  |  |  |  |
| O=C(Nc1cc(Cl)ccc1Cl)C(=O)C(c1cnc2ccccc2n1)[N+](=O)[O-] (stereo not drawn) | > 100 µM | > 100 | > 100 | > 100 µM | > 100 µM | > 100 µM |  |  |  |  |  |  |  |  |  |  |  |  |  |
